The source of these data is ChEMBL document CHEMBL1131228, “Molecular modeling of phenothiazines and related drugs as multidrug resistance modifiers: a comparative molecular field analysis study” (1998).

In the experiment the test system is MCF7-DOX. The experiment in a line: Anti MDR activity was expressed as MDR ratio or MDR fold reversal in doxorubicin resistant human breast carcinoma tumor cell line MCF-7/DOX. Type of experiment: functional.
As to FLUPENTIXOL, the MDR ratio came out at 4.8.
With `OCCN1CCN(CCCN2c3ccccc3Sc3ccc(C(F)(F)F)cc32)CC1` [FLUPHENAZINE] the figure was 2.7.
With `CSc1ccc2c(c1)N(CCCN(C)C)c1ccccc1S2` the figure was 1.5; with `CN(C)CC/C=C1/c2ccccc2Sc2ccc(Cl)cc21` [CHLORPROTHIXENE], 2.
Take `Clc1ccc2c(c1)C(=CCCN1CCCCC1)c1ccccc1S2`: the MDR ratio is 15.
In the case of `CN(C)CCCN1c2ccccc2[S+]([O-])c2ccc(Cl)cc21` (configuration not stated) [CHLOROPROMAZINE SULFOXIDE] it was 2.2; in that of `CN(C)C/C=C1/c2ccccc2Sc2ccc(Cl)cc21`, 1.1; in that of `CN(C)CCCCN1c2ccccc2Sc2ccc(Cl)cc21`, 2.
With `OCCN1CCN(CCCC2c3ccccc3Sc3ccc(Cl)cc32)CC1` (configuration not stated) the figure was 9.7.
In the case of `CN1CCN(CCCN2c3ccccc3Sc3ccc(C(F)(F)F)cc32)CC1` [TRIFLUOPERAZINE] it was 3.4; in that of `OCCN1CCN(CC/C=C2/c3ccccc3Sc3ccc(Cl)cc32)CC1` (stereo in doubt; 35) [ZUCLOPENTHIXOL], 15; in that of `CN(C)CCCN1c2ccccc2Sc2ccc(Cl)cc21` [CHLORPROMAZINE], 1.6.
With `CN(C)CCC=C1c2ccccc2Sc2ccc(C(F)(F)F)cc21`, the MDR ratio amounted to 2.8.
In the case of `CN(C)CCCN1c2ccccc2Sc2cc(Cl)ccc21` it was 1.3; in that of `CN(C)CCC=C1c2ccccc2Sc2ccc(Cl)cc21`, 7.
Take `CCN(CC)CCCC(C)Nc1c2ccc(Cl)cc2nc2ccc(OC)cc12` (configuration not stated) [QUINACRINE]: the MDR ratio came to 1.3.
With `CN(C)CCCN1c2ccccc2Sc2c(Cl)cccc21` the figure was 1.4.
With `OCCN1CCN(CCCN2c3ccccc3Sc3ccc(Cl)cc32)CC1` [PERPHENAZINE] the figure was 2; with `CN(C)CC=C1c2ccccc2Sc2ccc(Cl)cc21`, 1.3.
With `CN(C)CCCN1c2ccc(O)cc2Sc2ccc(Cl)cc21` [7-HYDROXYCHLORPROMAZINE] the figure was 1; with `NCCCN1c2ccccc2Sc2ccc(Cl)cc21` [NOR2-CHLORPROMAZINE], 1.1; with `CC(CN1c2ccccc2Sc2ccccc21)N(C)C` (configuration not stated) [PROMETHAZINE], 1.9.
On to `Clc1ccc2c(c1)/C(=C\CCN1CCCCC1)c1ccccc1S2`, for which the MDR ratio was found to be 6.7.
For `CNCCCN1c2ccccc2Sc2ccc(Cl)cc21` [NOR1-CHLORPROMAZINE], the MDR ratio turned out to be 1.2.
`OCCN1CCN(C/C=C2/c3ccccc3Sc3ccc(Cl)cc32)CC1`: the MDR ratio was 1.6.
For the compound `CCN(CC)CC/C=C1/c2ccccc2Sc2ccc(Cl)cc21`, the MDR ratio was 4.
In the case of `CN(C)CCN1c2ccccc2Sc2ccc(Cl)cc21` [CHOLRPHENETHAZINE] it was 1.5; in that of `CCN(CC)CCCN1c2ccccc2Sc2ccc(Cl)cc21` [CHLORPROETHAZINE], 2.2.
In the case of `OCCN1CCN(CC/C=C2/c3ccccc3Sc3ccc(Cl)cc32)CC1` (stereo in doubt; 34) [ZUCLOPENTHIXOL] it was 2.6; in that of `CN(C)CCCN1c2ccccc2Sc2cccc(Cl)c21`, 1.3.
With `CCN(CC)CCC=C1c2ccccc2Sc2ccc(Cl)cc21` the figure was 7.2.
With `CN(C)CCCN1c2ccccc2Sc2ccccc21` [PROMAZINE], the MDR ratio was found to be 1.2.
Consider `CN(C)CCCN1c2cc(Cl)ccc2Sc2cc(O)c(O)cc21`, for which the MDR ratio turned out to be 0.8.
Take `CN(C)CCCN1c2ccccc2CCc2ccccc21` [IMIPRAMINE]: the MDR ratio came out at 2.5.
In the case of `CN(C)CCCN1c2cc(O)ccc2Sc2cc(O)c(Cl)cc21` it was 0.9.
With `CN(C)CC/C=C1/c2ccccc2Sc2ccc(C(F)(F)F)cc21` the figure was 1.8; with `OCCN1CCN(CC/C=C2/c3ccccc3Sc3ccc(C(F)(F)F)cc32)CC1` [Z-FLUPENTIXOL], 15.2.
